What all share (format): biochemical
Experiment [1] has as its target T1, Dipeptidyl Peptidase I (cathepsin C) (Rattus norvegicus, UniProt P80067).
T1 construct: purchased Qiagen GmbH, Hilden, Germany
T1 sequence (P80067 25-462): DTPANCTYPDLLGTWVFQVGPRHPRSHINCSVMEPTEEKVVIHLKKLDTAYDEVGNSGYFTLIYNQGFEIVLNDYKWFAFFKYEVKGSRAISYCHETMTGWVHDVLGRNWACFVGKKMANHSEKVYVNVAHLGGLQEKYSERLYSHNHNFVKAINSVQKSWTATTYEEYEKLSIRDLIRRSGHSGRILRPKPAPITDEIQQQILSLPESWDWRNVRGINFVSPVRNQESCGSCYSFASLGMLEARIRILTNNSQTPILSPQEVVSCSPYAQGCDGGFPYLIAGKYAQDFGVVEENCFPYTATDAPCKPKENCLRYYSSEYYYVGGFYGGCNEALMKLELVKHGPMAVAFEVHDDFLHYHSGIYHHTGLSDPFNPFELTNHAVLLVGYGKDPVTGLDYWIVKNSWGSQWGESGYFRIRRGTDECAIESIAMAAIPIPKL
The experiment can be described thus: Cross reacting enzymes: dipeptidyl peptidase I. The conditions noted are these: concentration range 1*10^−5 M-1*10^−7 M. As to the method:
(§1) Glutaminyl pyrrolidine or glutaminyl thiazolidine were tested for their cross reacting potency against dipeptidyl peptidase I, prolyl oligopeptidase and prolidase.
DP I or cathepsin C is a lysosomal cysteine protease which cleaves dipeptides from the N-terminus of their substrates (Gutman, H. R. & Fruton, J. S., 1948, J Biol. Chem., 174, 851-858). It is classified as a cysteine protease. The enzyme used was purchased from Qiagen (Qiagen GmbH, Hilden, Germany). In order to get a fully active enzyme, the enzyme was diluted 1000 fold in MES buffer pH5.6 (40 mM MES, 4 mM DTT, 4 mM KCl, 2 mM EDTA, 0.015% Brij) and pre-incubated for 30 min at 30° C. 50 μL glutaminyl pyrrolidine or glutaminyl thiazolidine in a concentration range of 1*10^−5 M-1*10^−7 M were admixed with 110 μL buffer-enzyme-mixture. The assay mixture was pre-incubated at 30° C. for 15 min After pre-incubation, 100 μL histidylseryl-para-nitroanilide (2*10^−5 M) were added and measurement of yellow color development due to para-nitroaniline release was performed at 30° C. and […] for 10 min, using a plate reader (HTS7000 plus, Applied Biosystems, Weiterstadt, Germany). The IC50-values were calculated using Graphit 4.0.15 (Erithacus Software, Ltd., UK). No inhibition of the DP I enzyme activity by glutaminyl pyrrolidine or glutaminyl thiazolidine was found.

Experiment [2] addresses T2, recombinant human prolyl oligopeptidase (Homo sapiens, UniProt P48147).
T2 construct: made in house; host or cells: E. coli
T2 sequence (P48147 1-710): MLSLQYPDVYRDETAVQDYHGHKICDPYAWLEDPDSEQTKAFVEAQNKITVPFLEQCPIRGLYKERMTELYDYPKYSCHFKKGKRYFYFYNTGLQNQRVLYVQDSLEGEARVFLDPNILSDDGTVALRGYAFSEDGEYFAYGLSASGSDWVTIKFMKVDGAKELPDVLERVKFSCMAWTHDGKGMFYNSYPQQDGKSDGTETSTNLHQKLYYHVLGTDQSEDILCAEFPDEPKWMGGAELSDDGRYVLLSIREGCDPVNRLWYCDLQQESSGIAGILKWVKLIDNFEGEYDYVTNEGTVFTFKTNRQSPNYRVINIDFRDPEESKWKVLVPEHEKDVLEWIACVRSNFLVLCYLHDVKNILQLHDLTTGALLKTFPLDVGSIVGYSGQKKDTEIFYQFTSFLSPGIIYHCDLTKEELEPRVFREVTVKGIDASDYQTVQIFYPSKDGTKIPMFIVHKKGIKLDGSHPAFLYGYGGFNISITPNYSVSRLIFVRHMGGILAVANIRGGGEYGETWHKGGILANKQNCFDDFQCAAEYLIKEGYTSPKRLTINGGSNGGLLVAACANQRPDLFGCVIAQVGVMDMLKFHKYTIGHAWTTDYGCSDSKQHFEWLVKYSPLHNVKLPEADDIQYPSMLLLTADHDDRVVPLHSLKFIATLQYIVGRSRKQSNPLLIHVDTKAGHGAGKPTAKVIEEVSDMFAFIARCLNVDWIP
The experiment can be described thus: Cross reacting enzymes: prolyl oligopeptidase. The conditions noted are these: concentration range 1*10^−4 M-5*10^−8 M. As to the method:
as §1
Prolyl oligopeptidase (EC 3.4.21.26) is a serine type endoprotease which cleaves off peptides at the N-terminal part of the Xaa-Pro bond (Walter, R., Shlank, H., Glass, J. D., Schwartz, I. L. & Kerenyi, T. D., 1971, Science, 173, 827-829). Substrates are peptides with a molecular weight up to 3000 Da. The enzyme used was a recombinant human prolyl oligopeptidase. Recombinant expression was performed in E. coli under standard conditions as described elsewhere in the state of the art. 100 μL glutaminyl pyrrolidine or glutaminyl thiazolidine in an concentration range of 1*10^−4 M-5*10^−8 M were admixed with 100 μL buffer solution (40 mM HEPES, pH 7.6, 0.015% Brij, 1 mM DTT) and 20 μL POP solution. The assay mixture was pre-incubated at 30° C. for 15 min After pre-incubation, 50 μL glycylprolylprolyl-4-nitroaniline solution (0.29 mM) were added and measurement of yellow color development due to 4-nitroaniline release was performed at 30° C. and λ=405 nm for 10 min using a plate reader (sunrise, Tecan, Crailsheim, Germany). The IC 50-values were calculated using Graphit 4.0.15 (Erithacus Software, Ltd., UK). No inhibition of POP activity by glutaminyl pyrrolidine or glutaminyl thiazolidine was found.

Experiment [3] concerns the target T3, dipeptidyl peptidase IV from porcine kidney (Sus scrofa, UniProt P22411).
T3 construct: dipeptidyl peptidase IV from porcine kidney with a specific activity against glycylprolyl-4-nitroaniline of 37.5 U/mg; from tissue; host or cells: porcine kidney
The experiment can be described thus: Ki-determination, DP IV from porcine kidney. The conditions noted are these: substrate glycylprolyl-4-nitroaniline, 30 °C, pH 7.6, competitive inhibition. As to the method: For Kidetermination of glutaminyl pyrrolidine and glutaminyl thiazolidine, dipeptidyl peptidase IV from porcine kidney with a specific activity against glycylprolyl-4-nitroaniline of 37.5 U/mg and an enzyme concentration of 1.41 mg/mL in the stock solution was used.
100 μL glutaminyl pyrrolidine or glutaminyl thiazolidine in a concentration range of 1*10^−5 -1*10^−7 M (glutaminyl pyrrolidine) and 1*10^−6 M-1*10^−8 M (glutaminyl thiazolidine) respectively were admixed with 50 μL glycylprolyl-4-nitroaniline in different concentrations (0.4 mM, 0.2 mM, 0.1 mM, 0,05 mM) and 100 μl HEPES (40 mM, pH7.6; ion strength=0.125). The assay mixture was pre-incubated at 30 ° C. for 30 min. After pre-incubation, 20 μL DPIV (1:600 diluted) were added and measurement of yellow color development due to 4-nitroaniline release was performed at 30° C. and λ=405 nm for 10 min using a plate reader (HTS7000 plus, Applied Biosystems, Weiterstadt, Germany). The Ki-values were calculated using Graphit 4.0.15 (Erithacus Software, Ltd, UK) based on a competitive inhibition of DPIV by glutaminyl pyrrolidine or glutaminyl thiazolidine.

T3 sequence (P22411 whole entry): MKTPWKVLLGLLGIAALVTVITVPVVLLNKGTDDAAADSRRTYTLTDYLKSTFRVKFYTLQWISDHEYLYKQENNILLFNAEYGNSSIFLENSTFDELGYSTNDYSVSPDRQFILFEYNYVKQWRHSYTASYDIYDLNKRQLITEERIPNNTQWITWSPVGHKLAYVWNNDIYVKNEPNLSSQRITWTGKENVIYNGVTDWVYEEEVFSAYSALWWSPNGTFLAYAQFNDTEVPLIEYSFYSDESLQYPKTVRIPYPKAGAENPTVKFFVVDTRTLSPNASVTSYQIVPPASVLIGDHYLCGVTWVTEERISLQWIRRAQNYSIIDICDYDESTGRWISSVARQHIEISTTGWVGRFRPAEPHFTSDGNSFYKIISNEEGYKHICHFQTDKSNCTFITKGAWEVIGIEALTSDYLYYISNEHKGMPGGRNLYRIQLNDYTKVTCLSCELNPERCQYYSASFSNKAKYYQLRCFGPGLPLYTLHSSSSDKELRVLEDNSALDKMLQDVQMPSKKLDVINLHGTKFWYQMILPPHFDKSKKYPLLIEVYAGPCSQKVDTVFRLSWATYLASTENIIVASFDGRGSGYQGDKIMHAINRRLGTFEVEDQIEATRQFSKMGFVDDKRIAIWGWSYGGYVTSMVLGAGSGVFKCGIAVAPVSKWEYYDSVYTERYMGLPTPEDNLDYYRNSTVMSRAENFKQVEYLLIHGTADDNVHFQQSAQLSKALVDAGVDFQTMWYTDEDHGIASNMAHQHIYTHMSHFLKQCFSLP

`NC(=O)CC[C@H](N)C(=O)N1CCCC1` [glutaminyl pyrrolidine]: the “inhibition of the DP I enzyme activity” value in experiment [1] is reported as “No inhibition”. In addition, the “inhibition of POP activity” value in experiment [2] is “No inhibition”. The same molecule showed a Ki in experiment [3] of 1300 nM.

Turning to `NC(=O)CC[C@H](N)C(=O)N1CCSC1` [glutaminyl thiazolidine], in experiment [1], the “inhibition of the DP I enzyme activity” value is “No inhibition”. The “inhibition of POP activity” value in experiment [2] was “No inhibition”. Besides, in experiment [3], the Ki amounted to 312 nM.
